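The compound was tested at five concentrations on cells cultured in 96-well plates, with a 48-hour exposure period. Abbreviation: GI50, concentration required for 50% inhibition of growth. TGI denotes the concentration required for complete inhibition of growth.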
Experiments:
Assay in all cases: growth of human tumour cells (NCI), 48 h
786-0 renal = test system: 786-0 renal
A498 renal = test system: A498 renal
A549 NSCLC = test system: A549 NSCLC
ACHN renal = test system: ACHN renal
BT-549 breast = test system: BT-549 breast
CAKI-1 renal = test system: CAKI-1 renal
CCRF-CEM leukemia = test system: CCRF-CEM leukemia
COLO 205 colon = test system: COLO 205 colon
DU-145 prostate = test system: DU-145 prostate
EKVX NSCLC = test system: EKVX NSCLC
HCC-2998 colon = test system: HCC-2998 colon
HCT-116 colon = test system: HCT-116 colon
HCT-15 colon = test system: HCT-15 colon
HL-60(TB) leukemia = test system: HL-60(TB) leukemia
HOP-62 NSCLC = test system: HOP-62 NSCLC
HOP-92 NSCLC = test system: HOP-92 NSCLC
HS 578T breast = test system: HS 578T breast
HT29 colon = test system: HT29 colon
IGROV1 ovarian = test system: IGROV1 ovarian
K-562 leukemia = test system: K-562 leukemia
KM12 colon = test system: KM12 colon
LOX IMVI melanoma = test system: LOX IMVI melanoma
M14 melanoma = test system: M14 melanoma
MALME-3M melanoma = test system: MALME-3M melanoma
MCF7 breast = test system: MCF7 breast
MDA-MB-231 breast = test system: MDA-MB-231 breast
MDA-MB-435 = test system: MDA-MB-435
MOLT-4 leukemia = test system: MOLT-4 leukemia
NCI-H226 lung = test system: NCI-H226 lung
NCI-H23 lung = test system: NCI-H23 lung
NCI-H460 lung = test system: NCI-H460 lung
NCI-H522 lung = test system: NCI-H522 lung
NCI/ADR-RES ovarian = test system: NCI/ADR-RES ovarian
OVCAR-3 ovarian = test system: OVCAR-3 ovarian
OVCAR-4 ovarian = test system: OVCAR-4 ovarian
OVCAR-5 ovarian = test system: OVCAR-5 ovarian
OVCAR-8 ovarian = test system: OVCAR-8 ovarian
PC-3 prostate = test system: PC-3 prostate
RPMI-8226 leukemia = test system: RPMI-8226 leukemia
RXF 393 renal = test system: RXF 393 renal
SF-268 CNS = test system: SF-268 CNS
SF-295 CNS = test system: SF-295 CNS
SF-539 CNS = test system: SF-539 CNS
SK-MEL-2 melanoma = test system: SK-MEL-2 melanoma
SK-MEL-28 melanoma = test system: SK-MEL-28 melanoma
SK-MEL-5 melanoma = test system: SK-MEL-5 melanoma
SK-OV-3 ovarian = test system: SK-OV-3 ovarian
SN12C renal = test system: SN12C renal
SNB-19 CNS = test system: SNB-19 CNS
SNB-75 CNS = test system: SNB-75 CNS
SR leukemia = test system: SR leukemia
SW-620 colon = test system: SW-620 colon
TK-10 renal = test system: TK-10 renal
U251 CNS = test system: U251 CNS
UACC-257 melanoma = test system: UACC-257 melanoma
UACC-62 melanoma = test system: UACC-62 melanoma
UO-31 renal = test system: UO-31 renal

O=C1C(Cl)=C(Nc2ccccc2)C(=O)c2ccccc21
GI50 (786-0 renal): 6.57 µM
TGI (786-0 renal): 19.6 µM
GI50 (A498 renal): 8.93 µM
TGI (A498 renal): 35.3 µM
GI50 (A549 NSCLC): 15.5 µM
TGI (A549 NSCLC): 42.2 µM
GI50 (ACHN renal): 1.63 µM
TGI (ACHN renal): 3.13 µM
GI50 (BT-549 breast): 1.7 µM
TGI (BT-549 breast): 3.09 µM
GI50 (CAKI-1 renal): 1.73 µM
TGI (CAKI-1 renal): 3.13 µM
GI50 (CCRF-CEM leukemia): 2.37 µM
TGI (CCRF-CEM leukemia): > 100 µM
GI50 (COLO 205 colon): 1.88 µM
TGI (COLO 205 colon): 3.77 µM
GI50 (DU-145 prostate): 9.34 µM
TGI (DU-145 prostate): 22 µM
GI50 (EKVX NSCLC): 2.21 µM
TGI (EKVX NSCLC): 5.38 µM
GI50 (HCC-2998 colon): 2.15 µM
TGI (HCC-2998 colon): 4.29 µM
GI50 (HCT-116 colon): 1.83 µM
TGI (HCT-116 colon): 3.53 µM
GI50 (HCT-15 colon): 1.26 µM
TGI (HCT-15 colon): 2.92 µM
GI50 (HL-60(TB) leukemia): 1.77 µM
TGI (HL-60(TB) leukemia): 5.31 µM
GI50 (HOP-62 NSCLC): 12.8 µM
TGI (HOP-62 NSCLC): 26.8 µM
GI50 (HOP-92 NSCLC): 1.28 µM
TGI (HOP-92 NSCLC): 2.64 µM
GI50 (HS 578T breast): 3.05 µM
TGI (HS 578T breast): 30.5 µM
GI50 (HT29 colon): 2.27 µM
TGI (HT29 colon): 4.72 µM
GI50 (IGROV1 ovarian): 1.75 µM
TGI (IGROV1 ovarian): 3.27 µM
GI50 (K-562 leukemia): 0.648 µM
TGI (K-562 leukemia): > 100 µM
GI50 (KM12 colon): 6.23 µM
TGI (KM12 colon): > 100 µM
GI50 (LOX IMVI melanoma): 0.856 µM
TGI (LOX IMVI melanoma): 2.86 µM
GI50 (M14 melanoma): 1.88 µM
TGI (M14 melanoma): 3.57 µM
GI50 (MALME-3M melanoma): 1.92 µM
TGI (MALME-3M melanoma): 3.72 µM
GI50 (MCF7 breast): 1.5 µM
TGI (MCF7 breast): 3.53 µM
GI50 (MDA-MB-231 breast): 1.58 µM
TGI (MDA-MB-231 breast): 3.3 µM
GI50 (MDA-MB-435): 1.8 µM
TGI (MDA-MB-435): 3.27 µM
GI50 (MOLT-4 leukemia): 3.34 µM
TGI (MOLT-4 leukemia): > 100 µM
GI50 (NCI-H226 lung): 2.18 µM
TGI (NCI-H226 lung): 6.3 µM
GI50 (NCI-H23 lung): 1.92 µM
TGI (NCI-H23 lung): 4.25 µM
GI50 (NCI-H460 lung): 27.2 µM
TGI (NCI-H460 lung): > 100 µM
GI50 (NCI-H522 lung): 1.66 µM
TGI (NCI-H522 lung): 3.77 µM
GI50 (NCI/ADR-RES ovarian): 2.11 µM
TGI (NCI/ADR-RES ovarian): 4.89 µM
GI50 (OVCAR-3 ovarian): 1.67 µM
TGI (OVCAR-3 ovarian): 3.15 µM
GI50 (OVCAR-4 ovarian): 1.63 µM
TGI (OVCAR-4 ovarian): 3 µM
GI50 (OVCAR-5 ovarian): 1.94 µM
TGI (OVCAR-5 ovarian): 3.65 µM
GI50 (OVCAR-8 ovarian): 1.71 µM
TGI (OVCAR-8 ovarian): 3.2 µM
GI50 (PC-3 prostate): 3.61 µM
TGI (PC-3 prostate): 22.1 µM
GI50 (RPMI-8226 leukemia): 2.28 µM
TGI (RPMI-8226 leukemia): 6.84 µM
GI50 (RXF 393 renal): 1.6 µM
TGI (RXF 393 renal): 2.99 µM
GI50 (SF-268 CNS): 1.69 µM
TGI (SF-268 CNS): 3.27 µM
GI50 (SF-295 CNS): 10.6 µM
TGI (SF-295 CNS): 24.1 µM
GI50 (SF-539 CNS): 5.41 µM
TGI (SF-539 CNS): 17.5 µM
GI50 (SK-MEL-2 melanoma): 1.87 µM
TGI (SK-MEL-2 melanoma): 3.69 µM
GI50 (SK-MEL-28 melanoma): 1.97 µM
TGI (SK-MEL-28 melanoma): 3.53 µM
GI50 (SK-MEL-5 melanoma): 1.5 µM
TGI (SK-MEL-5 melanoma): 2.89 µM
GI50 (SK-OV-3 ovarian): 5.43 µM
TGI (SK-OV-3 ovarian): 18.7 µM
GI50 (SN12C renal): 1.82 µM
TGI (SN12C renal): 3.59 µM
GI50 (SNB-19 CNS): 2.22 µM
TGI (SNB-19 CNS): 5.07 µM
GI50 (SNB-75 CNS): 1.83 µM
TGI (SNB-75 CNS): 12 µM
GI50 (SR leukemia): 0.992 µM
TGI (SR leukemia): > 100 µM
GI50 (SW-620 colon): 1.09 µM
TGI (SW-620 colon): 2.92 µM
GI50 (TK-10 renal): 11 µM
TGI (TK-10 renal): > 100 µM
GI50 (U251 CNS): 1.8 µM
TGI (U251 CNS): 3.24 µM
GI50 (UACC-257 melanoma): 1.83 µM
TGI (UACC-257 melanoma): 3.3 µM
GI50 (UACC-62 melanoma): 1.72 µM
TGI (UACC-62 melanoma): 3.3 µM
GI50 (UO-31 renal): 1.41 µM
TGI (UO-31 renal): 2.97 µM

CC(C)c1ccc(C(=O)Nc2sc3c(CN(C)C)c(O)ccc3c2C(N)=O)cc1
GI50 (CCRF-CEM leukemia): 2.2 µM
TGI (CCRF-CEM leukemia): 9.37 µM
GI50 (EKVX NSCLC): 6.28 µM
TGI (EKVX NSCLC): > 100 µM
GI50 (HL-60(TB) leukemia): 1.74 µM
TGI (HL-60(TB) leukemia): 4.38 µM
GI50 (HOP-92 NSCLC): 3.48 µM
TGI (HOP-92 NSCLC): > 100 µM
GI50 (IGROV1 ovarian): 2.02 µM
TGI (IGROV1 ovarian): > 100 µM
GI50 (K-562 leukemia): 0.409 µM
TGI (K-562 leukemia): 4.55 µM
GI50 (KM12 colon): 0.728 µM
TGI (KM12 colon): > 100 µM
GI50 (MDA-MB-231 breast): 3.27 µM
TGI (MDA-MB-231 breast): > 100 µM
GI50 (MOLT-4 leukemia): 2.32 µM
TGI (MOLT-4 leukemia): 8.51 µM
GI50 (NCI/ADR-RES ovarian): 2.64 µM
TGI (NCI/ADR-RES ovarian): > 100 µM
GI50 (OVCAR-5 ovarian): 2.66 µM
TGI (OVCAR-5 ovarian): > 100 µM
GI50 (OVCAR-8 ovarian): 3.07 µM
TGI (OVCAR-8 ovarian): > 100 µM
GI50 (PC-3 prostate): 2.55 µM
TGI (PC-3 prostate): > 100 µM
GI50 (SK-OV-3 ovarian): 6.72 µM
TGI (SK-OV-3 ovarian): > 100 µM
GI50 (SN12C renal): 2.2 µM
TGI (SN12C renal): > 100 µM
GI50 (SNB-19 CNS): 3.23 µM
TGI (SNB-19 CNS): > 100 µM
GI50 (SNB-75 CNS): 2.09 µM
TGI (SNB-75 CNS): > 100 µM
GI50 (SR leukemia): 2.89 µM
TGI (SR leukemia): 8.79 µM

From PubChem BioAssay (NCI)
